pEC50: −log10 of the molar value.
Test system: HIV-IIIb (MT-4 cells)
Assay: Test A: Antiviral Assays in MT4 Cells
Type: cell-based
Conditions: MT4, 120 h, MT-4 cells infected with HIV-IIIb, 5 days of incubation, CellTiter-Glo readout
Protocol: The antiviral properties of a compound disclosed herein may be determined using Test A described below.
Test A: Antiviral Assays in MT4 Cells
For the antiviral assay utilizing MT-4 cells, 0.4 μL of […] test concentration of 3-fold serially diluted compound in DMSO was added to 40 μL of cell growth medium (RPMI 1640, 10% FBS, 1% penicillin/Streptomycin, 1% L-Glutamine, 1% HEPES) in each well of 384-well assay plates (10 concentrations) in quadruplicate.
1 mL aliquots of 2×10e6 MT-4 cells are pre-infected for 1 and 3 hrs respectively, @ 37° C. with 25 μL (MT4) or of either cell growth medium (mock-infected) or a fresh 1:250 dilution of an HIV-IIIb concentrated ABI stock (0.004 m.o.i. for MT4 cells). Infected and uninfected cells are diluted in cell growth medium and 35 μL of 2000 (for MT4) cells is added to each well of the assay plates.
Assay plates were then incubated in a 37° C. incubator. After 5 days of incubation, […] 2× concentrated CellTiter-Glo™ Reagent (catalog #G7573, Promega Biosciences, Inc., Madison, Wis.) was added to each well of the assay plate. Cell lysis was carried out by incubating at room temperature for 2-3 min and then chemiluminescence was read using the Envision reader (PerkinElmer).

Structure (SMILES)	pEC50
Cc1cc2nc(N)ccc2c(-c2ccc3c4c(ccnc24)CCO3)c1[C@H](OC(C)(C)C)C(=O)O (atropisomer, axis not shown) [Example 47, (S)-2-((R)-2-Amino-5-(2,3-dihydropyrano[4,3,2-de]quinolin-7-yl)-7-methylquinolin-6-yl)-2-tert-butoxyacetic acid]	6.53
CC(=O)Nc1ccc2c(-c3ccc4c5c(ccnc35)CCO4)c([C@H](OC(C)(C)C)C(=O)O)c(C)cc2n1 (atropisomer, axis not shown) [Example 48, (S)-2-((R)-2-Acetamido-5-(2,3-dihydropyrano[4,3,2-de]quinolin-7-yl)-7-methylquinolin-6-yl)-2-tert-butoxyacetic acid]	6.44
Cc1cc2nc(NC(=O)c3ccccc3)ccc2c(-c2ccc3c4c(ccnc24)CCO3)c1[C@H](OC(C)(C)C)C(=O)O (atropisomer, axis not shown) [Example 49, (S)-2-((R)-2-Benzamido-5-(2,3-dihydropyrano[4,3,2-de]quinolin-7-yl)-7-methylquinolin-6-yl)-2-tert-butoxyacetic acid]	6.87
Cc1cc2nc(C#N)ccc2c(-c2ccc3c4c(ccnc24)CCO3)c1[C@H](OC(C)(C)C)C(=O)O (atropisomer, axis not shown) [Example 50, (S)-2-tert-Butoxy-2-((R)-2-cyano-5-(2,3-dihydropyrano[4,3,2-de]quinolin-7-yl)-7-methylquinolin-6-yl)acetic acid]	6.78
Cc1cc2nc(C(C)(C)O)ccc2c(-c2ccc3c4c(ccnc24)CCO3)c1[C@H](OC(C)(C)C)C(=O)O (atropisomer, axis not shown) [Example 51, (S)-2-tert-Butoxy-2-((R)-5-(2,3-dihydropyrano[4,3,2-de]quinolin-7-yl)-2-(2-hydroxypropan-2-yl)-7-methylquinolin-6-yl)acetic acid]	6.73
Cc1cc2nc(C(C)(F)F)ccc2c(-c2ccc3c4c(ccnc24)CCO3)c1[C@H](OC(C)(C)C)C(=O)O (atropisomer, axis not shown) [Example 52, (S)-2-tert-Butoxy-2-((R)-2-(1,1-difluoroethyl)-5-(2,3-dihydropyrano[4,3,2-de]quinolin-7-yl)-7-methylquinolin-6-yl)acetic acid]	7.19
Cc1cc2c(ccc3cnnn32)c(-c2ccc3c4c(ccnc24)CCO3)c1[C@H](OC(C)(C)C)C(=O)O (atropisomer, axis not shown) [Example 55, (S)-2-tert-butoxy-2-((R)-6-(2,3-dihydropyrano[4,3,2-de]quinolin-7-yl)-8-methyl-[1,2,3]triazolo[1,5-a]quinolin-7-yl)acetic acid]	7.11
Cc1cc2c(ccc(=O)n2Cc2cccc(S(C)(=O)=O)c2)c(-c2ccc(Cl)cc2)c1[C@H](OC(C)(C)C)C(=O)O [Example 6, (S)-2-tert-Butoxy-2-(5-(4-chlorophenyl)-7-methyl-1-(3-(methylsulfonyl)benzyl)-2-oxo-1,2-dihydroquinolin-6-yl)acetic acid]	6.54
Cc1cc2c(ccc(=O)n2Cc2cccc(C(F)(F)F)c2)c(-c2ccc(Cl)cc2)c1[C@H](OC(C)(C)C)C(=O)O [Example 7, (S)-2-tert-Butoxy-2-(5-(4-chlorophenyl)-7-methyl-2-oxo-1-(3-(trifluoromethyl)benzyl)-1,2-dihydroquinolin-6-yl)acetic acid]	6.73
Cc1cc2nc(C(C)F)ccc2c(-c2ccc3c4c(ccnc24)CCO3)c1[C@H](OC(C)(C)C)C(=O)O (stereo partly drawn) [Example 53, (2S)-2-tert-Butoxy-2-((5R)-5-(2,3-dihydropyrano[4,3,2-de]quinolin-7-yl)-2-(1-fluoroethyl)-7-methylquinolin-6-yl)acetic acid]	7.66

Reference: patent US9376392B2, “2-(tert-butoxy)-2-(7-methylquinolin-6-yl) acetic acid derivatives for treating AIDS” (Gilead Sciences, Inc., priority 2012, dated 2016)
